Data from publication PMC8921294, “Inhibition of mitochondrial LonP1 protease by allosteric blockade of ATP binding and hydrolysis via CDDO and its derivatives” (The Journal of Biological Chemistry, 2022).
Where “and” joins values, the source holds several entries; their conditions need not be identical. Identical values can stand only once.

Key:
[1] = biological target: T1, Human mitochondrial LonP1 (wild-type) ATPase (Homo sapiens, UniProt P36776); assay: Endpoint ATPase assay (ADP-Glo), wild-type LonP1; assay type: biochemical; conditions: end-point ATPase assay, 1 mM ATP, 60 min preincubation 25 °C; Table 1
T1 construct: hexa-histidine (N); made in house; host or cells: Rosetta 2 E. coli
T1 sequence (P36776 68-959): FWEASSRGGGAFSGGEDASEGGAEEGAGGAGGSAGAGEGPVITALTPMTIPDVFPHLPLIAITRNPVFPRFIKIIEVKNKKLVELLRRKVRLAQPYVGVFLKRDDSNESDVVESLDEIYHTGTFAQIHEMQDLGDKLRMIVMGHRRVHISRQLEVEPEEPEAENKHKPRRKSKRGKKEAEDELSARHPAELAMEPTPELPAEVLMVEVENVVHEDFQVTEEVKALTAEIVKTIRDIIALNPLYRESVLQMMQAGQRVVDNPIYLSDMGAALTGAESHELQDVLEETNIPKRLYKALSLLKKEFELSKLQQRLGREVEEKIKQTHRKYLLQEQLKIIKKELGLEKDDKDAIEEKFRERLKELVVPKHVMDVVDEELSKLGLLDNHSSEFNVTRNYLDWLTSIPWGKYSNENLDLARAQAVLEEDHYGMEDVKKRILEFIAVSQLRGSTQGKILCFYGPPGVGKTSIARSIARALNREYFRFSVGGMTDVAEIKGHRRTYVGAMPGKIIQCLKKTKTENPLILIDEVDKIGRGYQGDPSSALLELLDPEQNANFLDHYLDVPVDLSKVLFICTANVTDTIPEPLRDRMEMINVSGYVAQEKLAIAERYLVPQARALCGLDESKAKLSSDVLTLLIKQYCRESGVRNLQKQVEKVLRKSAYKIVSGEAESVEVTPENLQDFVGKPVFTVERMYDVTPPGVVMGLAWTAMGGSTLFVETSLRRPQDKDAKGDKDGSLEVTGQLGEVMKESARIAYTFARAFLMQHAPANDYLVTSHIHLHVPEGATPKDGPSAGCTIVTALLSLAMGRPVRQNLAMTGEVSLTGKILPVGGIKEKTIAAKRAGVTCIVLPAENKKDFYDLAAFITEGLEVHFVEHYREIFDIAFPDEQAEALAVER
Protocol: ADP-Glo (Promega) assays were performed according to the manufacturer's protocols. Purified wild-type or mutant LonP1 (400 nM monomer), the 26S proteasome (3 nM), or no enzyme controls were preincubated in 96-well plates (60 min, 25 °C) with ten different concentrations of CDDO and its derivatives, TP-82, enoxolone (5 μM) or DMSO vehicle control in buffer (40 mM Tris-HCl (pH 7.5), 20 mM MgCl2, 0.1 mg/ml BSA and 5% DMSO). The 26S and 20S proteasome were also assayed at 0, 0.75, 1.5, 3, 6, and 12 nM in the absence of CDDO derivatives. UltraPure ATP (1 mM final) was added, and reactions (50 μl final) were incubated for 60 min at 25 °C, then 5 μl was transferred in quadruplicate to a 384-well plate. Assay reagents were used to quench further ATPase activity and generate luminescence signals proportional to the concentration of ADP formed. Background (no enzyme control) luminescence values were subtracted, and resultant values were reported as a percentage of the no drug control (100%). Data were fit to four-parameter dose–response curves using GraphPad Prism. The error bars represent the standard deviation (SD) of four replicate reactions from at least three independent experiments.

[2] = biological target: T2, Human mitochondrial LonP1 (LonP1^WT) ATPase (Homo sapiens, UniProt P36776); assay: Continuous NADH-coupled ATPase assay, wild-type LonP1; assay type: biochemical; conditions: for Modality (mechanism of LonP1 ATPase inhibition) / Ki / αKi / α: continuous ATPase assay; for Modality (mechanism of LonP1 ATPase inhibition): ATP titrated; for Ki: LonP1 400 nM, 30 min preincubation; for αKi: dissociation constant for ES complex; for α: relates αKi to Ki
T2 construct: hexa-histidine (N); made in house; host or cells: Rosetta 2 E. coli
T2 sequence (P36776 68-959): T1 sequence (P36776 68-959)
Protocol: ATPase reactions (200 μl total) were performed in 96-well plates at room temperature. LonP1 (400 nM monomer) was preincubated with DMSO (1–2%) vehicle control or CDDO derivatives in buffer (50 mM HEPES-KOH pH 7.5, 5 mM magnesium acetate, 75 mM potassium acetate) for 30 to 45 min at room temperature or 30 °C. The reactions were initiated by the addition of phosphoenolpyruvate (PEP, 3 mM), NADH (300 μM), pyruvate kinase and lactate dehydrogenase (PK-LDH) (12–20 U/ml), and ATP concentrations as indicated. The change in NADH absorbance at 340 nm was monitored in Spectramax plate reader for 5 min to obtain reaction velocities. Data were fit to the Michaelis–Menten curve using GraphPad Prism 5, and the error bars represent the standard deviation (SD) of four replicate reactions from at least three independent experiments.

heme oxygenase 1 (HO-1) = assay: HO-1 stabilisation in HeLa ρ^0 cells (immunoblot); assay type: cell-based, human; conditions: 7 h
Protocol: LonP1 knockdown stabilized HO-1 protein, whereas LonP1 overexpression decreased HO-1 protein (Fig. 4, E and F).
HeLa cells devoid of mitochondrial DNA (HeLa ρ^0) and LCL cells were generated as described previously ([50]). DMEM, RPMI, and fetal bovine serum were purchased from Sigma. All cells were grown with 5% CO2 at 37 °C. LCL cells were cultured in RPMI supplemented with 15% FBS. HeLa Rho 0 cells were cultured in high glucose DMEM (25 mM) (Sigma) supplemented with sodium pyruvate ([…]) and uridine ([…]). CDDO-Me was purchased from Cayman chemicals, and CDDO-AH was synthesized as described previously ([20]). HEK293 cells plated in 60 mm dishes at a confluency of 60 to 70% were transfected with Control or 3′UTR LonP1 siRNA using Lipofectamine 2000 (Invitrogen) and reduced serum OPTI MEM (Sigma) as described in the manufacturer’s protocol to knockdown LonP1, whereas adenoviral transduction was employed to overexpress LonP1. CDDO-Me and CDDO-anhydride were dissolved in DMSO and serially diluted in the respective complete medium and added to HeLa ρ^0 cells and were treated for 7 or 24 h.
Cells were harvested, centrifuged, and washed with PBS and proteins were extracted by adding the lysis buffer (50 mM Tris, [pH 7.5], 300 mM NaCl, and 0.5% Triton X-100) containing 2X Halt phosphatase and protease cocktail inhibitor (Thermo Scientific) for 20 min on ice. […]

IC50 [1] [µM] | Modality (mechanism of LonP1 ATPase inhibition) [2] | Ki [2] [µM] | αKi [2] | α [2] | Ki relative to the Ki of other CDDO derivatives ([2]; fold higher) [fold] | Compound | Concentration stabilising HO-1 (heme oxygenase 1 (HO-1)) [µM]
13 ± 6 | noncompetitive | 2.6 ± 0.5 | 14 ± 2 µM and 14.0 ± 2.0 µM | 5.4 |  | CC1(C)CC[C@]2(C(=O)O)CC[C@]3(C)[C@H](C(=O)C=C4[C@@]5(C)C=C(C#N)C(=O)C(C)(C)[C@@H]5CC[C@]43C)[C@@H]2C1 [CDDO, 2-cyano-3,12-dioxooleana-1,9(11)-dien-28-oic acid] | 
1.9 ± 0.3 | noncompetitive | 0.8 ± 0.1 | 3.3 ± 1.0 µM | 4.3 |  | COC(=O)[C@]12CCC(C)(C)C[C@H]1[C@H]1C(=O)C=C3[C@@]4(C)C=C(C#N)C(=O)C(C)(C)[C@@H]4CC[C@@]3(C)[C@]1(C)CC2 [CDDO-Me] | ≥ 0.125
19.4 ± 3.3 | competitive | 9.5 ± 1.4 |  |  | ~3.5 | CC1(C)CC[C@]2(C(=O)OC(=O)[C@]34CCC(C)(C)C[C@H]3[C@H]3C(=O)C=C5[C@@]6(C)C=C(C#N)C(=O)C(C)(C)[C@@H]6CC[C@@]5(C)[C@]3(C)CC4)CC[C@]3(C)[C@H](C(=O)C=C4[C@@]5(C)C=C(C#N)C(=O)C(C)(C)[C@@H]5CC[C@]43C)[C@@H]2C1 [CDDO-anhydride] | ≥ 0.25
